Test results reported in US12336981B2, “Compounds and compositions for the inhibition of NAMPT” (Valo Health, Inc., priority 2010, dated 2025).
pIC50: −log10 of the molar value. Where two headings read alike, the source gives them in different places.

Assays:
[1] = target: T1, NAMPT (Homo sapiens, UniProt P43490); assay: Biochemical inhibition assay: NAMPT enzymatic reaction, NMN quantified by mass spectrometry; details: read-out: Biochem IC50
T1 construct: His tag; host or cells: E. coli
Description: Biochemical Inhibition Assay
NAMPT Protein Purification
Recombinant His-tagged NAMPT was produced in E. coli cells, purified over a Ni column, and further purified over a size-exclusion column by XTAL Biostructures.
The NAMPT Enzymatic Reaction
The NAMPT enzymatic reactions were carried out in Buffer A (50 mM Hepes pH 7.5, 50 mM NaCl, 5 mM MgCl2, and 1 mM THP) in 96-well V-bottom plates. The compound titrations were performed in a separate dilution plate by serially diluting the compounds in DMSO to make a 100× stock. […] The compound and enzyme mix was incubated for 15 minutes at room temperature, then 10 μL of 10× substrate and co-factors in Buffer A were added to the test well to make a final concentration of 1 μM NAM, 100 μM 5-Phospho-D-ribose 1-diphosphate (PRPP), and 2.5 mM Adenosine 5′-triphosphate (ATP). The reaction was allowed to proceed for 30 minutes at room temperature, then was quenched with the addition of 11 μL of a solution of formic acid and L-Cystathionine to make a final concentration of 1% formic acid and 10 μM L-Cystathionine. Background and signal strength was determined by addition (or non-addition) of a serial dilution of NMN to a pre-quenched enzyme and cofactor mix.
A mass spectrometry-based assay was used to measure the NAMPT reaction product (NMN) and the internal control (L-Cystathionine). NMN and L-Cystathionine were detected using the services of Biocius Lifesciences with the RapidFire system. In short, the NMN and L-Cystathionine are bound to a graphitic carbon cartridge in 0.1% formic acid, eluted in 30% acetonitrile buffer, and injected into a Sciex 4000 mass spectrometer. The components of the sample were ionized with electrospray ionization and the positive ions were detected. […] The fragments are quantified and the analyzed by the following method.
First the NMN signal is normalized to the L-Cystathionine signal by dividing the NMN signal by the L-Cystathionine signal for each well. The signal from the background wells are averaged and subtracted from the test plates. […] IC50s are Determined Using Excel and this Formula.

[2] = tested on: A2780 cells; assay: In-vitro cell proliferation assay (SRB), A2780 cells; format: cell-based; details: A2780 cells, 72 hours, read-out: A2780 IC50
Description: In-Vitro Cell Proliferation Assay
After overnight incubation at 37° C. and 5% CO2, the compound titrations were performed in a separate dilution plate by serially diluting the compounds in DMSO to make a 1000× stock. The compounds were then further diluted to 10× final concentration in culture media, whereupon 20 μL of each dilution was added to the plated cells with controls (e.g. DMSO and blank) to make a final volume of 200 μL. The final DMSO concentration in each well was 0.1%. The plates were then incubated for 72 hours at 37° C. in a 5% CO2 incubator. The number of viable cells was then assessed using sulforhodamine B (SRB) assay. Cells were fixed at 4° C. for 1 hour with the addition of 50 μL 30% trichloroacetic acid (TCA) to make a final concentration of 6% TCA. The plates were washed four times with H2O and allowed to dry for at least 1 hour, whereupon 100 μL of a 4% SRB in 1% acetic acid solution was added to each well and incubated at room temperature for at least 30 minutes. The plates were then washed three times with 1% acetic acid, dried, and treated with 100 μL of 10 mM Tris-Base solution. The plates were then read in a microplate reader at an absorbance of 570 nm. Background was generated on a separate plate with media only.
Method for Determining % Inhibition
First, the signals from the background plate are averaged, then the background was subtracted from the test plates.
wherein X denotes the compound concentration 1, Y denotes the compound concentration 2, XX denotes the % inhibition at compound concentration 1 (X), and YY denotes the % inhibition at compound concentration 2 (Y).

[3] = Homo sapiens, A2780, 72 h, SRB assay

T1 sequence (P43490 whole entry): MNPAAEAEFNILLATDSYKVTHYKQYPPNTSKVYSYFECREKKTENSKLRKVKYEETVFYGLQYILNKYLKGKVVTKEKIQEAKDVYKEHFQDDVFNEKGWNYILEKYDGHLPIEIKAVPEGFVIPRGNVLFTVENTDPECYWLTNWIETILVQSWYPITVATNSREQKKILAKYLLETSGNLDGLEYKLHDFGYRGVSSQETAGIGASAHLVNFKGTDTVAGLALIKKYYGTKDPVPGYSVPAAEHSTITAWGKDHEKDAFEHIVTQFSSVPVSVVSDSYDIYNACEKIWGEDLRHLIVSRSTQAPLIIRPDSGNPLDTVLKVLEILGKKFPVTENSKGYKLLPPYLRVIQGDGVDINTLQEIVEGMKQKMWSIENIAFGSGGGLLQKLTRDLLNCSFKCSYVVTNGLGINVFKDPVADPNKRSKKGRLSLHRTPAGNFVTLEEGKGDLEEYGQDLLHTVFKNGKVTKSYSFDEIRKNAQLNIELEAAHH

SMILES | pIC50 ([1]; NAMPT enzymatic reaction) | pIC50 [2, 3] | pIC50 ([2]; Homo sapiens, A2780, 72 h, SRB) | pIC50 ([1]; NAMPT enzymatic assay) | pIC50 ([2]; SRB)
O=C(NCc1ccc(S(=O)(=O)c2ccc(F)cc2)cc1)c1cc2ccncc2s1 [N-({4-[(4-fluorobenzene)sulfonyl]phenyl}methyl)thieno[2,3-c]pyridine-2-carboxamide] | 8.52 | 8.00 | – | – | –
CCOc1cc(S(=O)(=O)c2ccc(CNC(=O)c3cc4cnccc4[nH]3)cc2)ccc1F | 7.08 | – | 8.36 | – | –
O=C(NCc1ccc(S(=O)(=O)c2ccc(F)cc2Cl)cc1)c1cc2ccncc2o1 | 7.75 | – | 7.20 | – | –
CC(C)COc1cc(F)cc(S(=O)(=O)c2ccc(CNC(=O)c3cnc4nccn4c3)cc2)c1 | – | – | 8.47 | 8.51 | –
O=C(NCc1ccc(S(=O)(=O)c2cc(F)cc(OCC(F)(F)F)c2)cc1)c1cnc2[nH]ncc2c1 [N-[(4-{[3-fluoro-5-(2,2,2-trifluoroethoxy)benzene]sulfonyl}phenyl)methyl]-1H-pyrazolo[3,4-b]pyridine-5-carboxamide] | – | – | 8.32 | 8.10 | –
Cn1cc(S(=O)(=O)c2ccc(CNC(=O)c3ccc4nccn4c3)cc2)c(C(F)(F)F)n1 [N-({4-[1-methyl-3-(trifluoromethyl)-1H-pyrazole-4-sulfonyl]phenyl}methyl)imidazo[1,2-a]pyridine-6-carboxamide] | – | – | 7.56 | 7.52 | –
COc1ccc(Cl)cc1NS(=O)(=O)c1ccc(CNC(=O)c2cc3cnccc3[nH]2)cc1 [N-({4-[(5-chloro-2-methoxyphenyl)sulfamoyl]phenyl}methyl)-1H-pyrrolo[3,2-c]pyridine-2-carboxamide] | 6.71 | 4.75 | – | – | –
O=C(NCc1ccc(S(=O)(=O)c2ccccc2)cc1)c1[nH]c2ccncc2c1Br [N-{[4-(benzenesulfonyl)phenyl]methyl}-3-bromo-1H-pyrrolo[3,2-c]pyridine-2-carboxamide] | 6.51 | 5.13 | – | – | –
O=C(NCc1ccc(S(=O)(=O)c2nccs2)cc1)c1cc2ccncc2o1 [N-{[4-(1,3-thiazole-2-sulfonyl)phenyl]methyl}furo[2,3-c]pyridine-2-carboxamide] | – | – | 7.10 | 7.70 | –
O=C(NCc1ccc(S(=O)(=O)c2ccc(Cl)c(C(F)(F)F)c2)cc1)c1ccc2nccn2c1 [N-[(4-{[4-chloro-3-(trifluoromethyl)benzene]sulfonyl}phenyl)methyl]imidazo[1,2-a]pyridine-6-carboxamide] | – | – | 8.45 | 8.01 | –
COc1ccc(S(=O)(=O)c2ccc(CNC(=O)c3cc4cnccc4[nH]3)cc2)cc1OC [N-({4-[(3,4-dimethoxybenzene)sulfonyl]phenyl}methyl)-1H-pyrrolo[3,2-c]pyridine-2-carboxamide] | 7.85 | 8.52 | – | – | –
O=C(NCc1ccc(S(=O)(=O)c2ccc(N3CCCC3)cc2)cc1)c1ccc2nccn2c1 | – | – | 8.85 | 8.52 | –
CC(C)NC(=O)c1cccc(S(=O)(=O)c2ccc(CNC(=O)c3cnc4nccn4c3)cc2)c1 | – | – | 7.18 | 8.15 | –
COc1ccc(C)cc1S(=O)(=O)c1ccc(CNC(=O)c2cc3ccncc3s2)cc1 [N-({4-[(2-methoxy-5-methylbenzene)sulfonyl]phenyl}methyl)thieno[2,3-c]pyridine-2-carboxamide] | 8.22 | 8.60 | – | – | –
O=C(NCc1ccc(S(=O)(=O)c2cccnc2)cc1)c1cnc2nccn2c1 [N-{[4-(pyridine-3-sulfonyl)phenyl]methyl}imidazo[1,2-a]pyrimidine-6-carboxamide] | – | – | 6.00 to 7.00 | 8.23 | –
COc1cc(S(=O)(=O)c2ccc(CNC(=O)c3cnc4[nH]ncc4c3)cc2)ccc1Cl | 7.90 | – | 7.89 | – | –
Cc1ccc(Cl)cc1S(=O)(=O)c1ccc(CNC(=O)c2cnc3nccn3c2)cc1 | 8.51 | – | 8.37 | – | –
CC(C)COc1cc(F)cc(S(=O)(=O)c2ccc(CNC(=O)c3cc4cnccc4[nH]3)cc2)c1 | – | – | 8.15 | 7.88 | –

SMILES | pIC50 ([1]; NAMPT enzymatic reaction) | pIC50 [2, 3] | pIC50 ([2]; Homo sapiens, A2780, 72 h, SRB) | pIC50 ([1]; NAMPT enzymatic assay) | pIC50 ([2]; SRB)
COc1cc(Cl)c(C)cc1NS(=O)(=O)c1ccc(CNC(=O)c2cc3cnccc3[nH]2)cc1 [N-({4-[(4-chloro-2-methoxy-5-methylphenyl)sulfamoyl]phenyl}methyl)-1H-pyrrolo[3,2-c]pyridine-2-carboxamide] | 5.11 | 4.74 | – | – | –
O=C(NCc1ccc(S(=O)(=O)c2ccccc2)cc1)N1CCc2ncncc2C1 [N-{[4-(benzenesulfonyl)phenyl]methyl}-5H,6H,7H,8H-pyrido[4,3-d]pyrimidine-6-carboxamide] | < 5.70 | < 5.70 | – | – | –
O=C(NCc1ccc(S(=O)(=O)c2ccc(OCCN3CCCC3)cc2)cc1)c1cc2cnccc2[nH]1 | – | – | – | 8.52 | 8.64
O=C(NCc1ccc(S(=O)(=O)c2cccc(N3CCCCC3)c2)cc1)c1cc2ccncc2s1 | – | – | 7.87 | 7.78 | –
O=C(NCc1ccc(S(=O)(=O)c2cc(C(F)(F)F)ccn2)cc1)c1cnc2nccn2c1 [N-({4-[4-(trifluoromethyl)pyridine-2-sulfonyl]phenyl}methyl)imidazo[1,2-a]pyrimidine-6-carboxamide] | – | – | 7.89 | 8.06 | –
COc1c(Cl)ccc(S(=O)(=O)c2ccc(CNC(=O)c3ccc4nccn4c3)cc2)c1Cl | 7.51 | – | 7.89 | – | –
CCNC(=O)c1cccc(S(=O)(=O)c2ccc(CNC(=O)c3cc4ccncc4o3)cc2)c1 | – | – | 8.19 | 8.22 | –
COc1ccc(OC(F)(F)F)cc1S(=O)(=O)c1ccc(CNC(=O)c2cnc3nccn3c2)cc1 | – | – | 8.24 | > 9.19 | –
CCOc1cc(Cl)ccc1S(=O)(=O)c1ccc(CNC(=O)c2ccc3nccn3c2)cc1 | 8.39 | – | 9.15 | – | –
O=C(NCc1ccc(S(=O)(=O)c2csc(-c3cccc(F)c3)n2)cc1)c1cc2ccncc2o1 [N-({4-[2-(3-fluorophenyl)-1,3-thiazole-4-sulfonyl]phenyl}methyl)furo[2,3-c]pyridine-2-carboxamide] | – | – | 7.30 | 7.92 | –
Cc1cc(C)n(-c2cccc(S(=O)(=O)c3ccc(CNC(=O)c4ccc5ncsc5c4)cc3)c2)n1 | – | – | 6.00 to 7.00 | 7.75 | –
Cn1ncc2ccc(S(=O)(=O)c3ccc(CNC(=O)c4cc5ccncc5s4)cc3)cc21 [N-{[4-(1-methyl-1H-indazole-6-sulfonyl)phenyl]methyl}thieno[2,3-c]pyridine-2-carboxamide] | – | – | 8.96 | 8.64 | –
O=C(NCc1ccc(S(=O)(=O)c2cc(Cl)ccc2O)cc1)c1ccc2nccn2c1 [N-({4-[(5-chloro-2-hydroxybenzene)sulfonyl]phenyl}methyl)imidazo[1,2-a]pyridine-6-carboxamide] | 7.85 | – | 6.77 | – | –
O=C(NCc1ccc(S(=O)(=O)c2ccccc2)cc1)c1n[nH]c2ncccc12 [N-{[4-(benzenesulfonyl)phenyl]methyl}-1H-pyrazolo[3,4-b]pyridine-3-carboxamide] | 5.90 | < 5.00 | – | – | –
Cc1cc(-n2cccn2)ccc1S(=O)(=O)c1ccc(CNC(=O)c2cc3ccncc3o2)cc1 | – | – | 8.22 | 8.21 | –
O=C(NCc1ccc(S(=O)(=O)c2ccc(C(F)(F)F)cn2)cc1)c1cnc2nccn2c1 [N-({4-[5-(trifluoromethyl)pyridine-2-sulfonyl]phenyl}methyl)imidazo[1,2-a]pyrimidine-6-carboxamide] | – | – | 7.15 | 8.23 | –
O=C(NCc1ccc(S(=O)(=O)c2ccc(F)cc2C(F)(F)F)cc1)c1cc2ccncc2s1 | – | – | 7.84 | 8.19 | –
O=C(NCc1ccc(S(=O)(=O)c2c(Cl)cccc2Cl)cc1)c1cc2cnccc2[nH]1 | 7.35 | – | 7.87 | – | –
